Results reported in patent US20230089867A1, “CYCLIC PENTAMER COMPOUNDS AS PROPROTEIN CONVERTASE SUBTILISIN/KEXIN TYPE 9 (PCSK9) INHIBITORS FOR THE TREATMENT OF METABOLIC DISORDER” (Novartis AG, priority 2018, published 2023).

Biological target: human PCSK9 (Homo sapiens, UniProt Q8NBP7)
Assay: PCSK9 ligand binding TR-FRET assay (interference with binding of human PCSK9 to human LDLR)
Details: for Max % inhibition: PCSK9 FRET assay, efficacy (Amax), 100% = 1 uM unlabeled human PCSK9, 0% = DMSO; for IC50: TR-FRET, human PCSK9 Alexa Fluor 647 / human LDLR extracellular domain-Europium Kryptate, read-out: PCSK9 FRET Assay IC50
How it was run: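 Threefold compound dilutions were pre-incubated 30 min with PCSK9, after which 4 nM Europium Kryptate-tagged human LDLR ectodomain was added for a further 2 h.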

human PCSK9, sequence (Q8NBP7 153-692): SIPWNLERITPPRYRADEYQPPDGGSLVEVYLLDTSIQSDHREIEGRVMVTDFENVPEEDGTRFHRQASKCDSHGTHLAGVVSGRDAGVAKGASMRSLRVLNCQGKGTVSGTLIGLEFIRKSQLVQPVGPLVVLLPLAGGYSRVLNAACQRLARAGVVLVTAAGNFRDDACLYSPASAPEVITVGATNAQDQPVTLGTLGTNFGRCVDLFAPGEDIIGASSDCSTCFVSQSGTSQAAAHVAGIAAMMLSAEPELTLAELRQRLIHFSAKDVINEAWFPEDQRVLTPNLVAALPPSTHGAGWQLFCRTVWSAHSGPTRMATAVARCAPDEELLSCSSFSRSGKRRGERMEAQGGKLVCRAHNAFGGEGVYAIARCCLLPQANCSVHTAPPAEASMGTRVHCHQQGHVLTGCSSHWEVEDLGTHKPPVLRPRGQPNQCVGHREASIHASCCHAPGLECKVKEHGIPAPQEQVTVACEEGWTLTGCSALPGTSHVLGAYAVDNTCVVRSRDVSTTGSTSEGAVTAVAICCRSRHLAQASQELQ
human PCSK9, sequence (Q8NBP7 31-152 partner limits assumed): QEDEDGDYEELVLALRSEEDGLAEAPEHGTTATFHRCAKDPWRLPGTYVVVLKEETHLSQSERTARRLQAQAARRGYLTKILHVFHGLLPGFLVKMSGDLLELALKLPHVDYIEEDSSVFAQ

Max % inhibition | IC50 | Compound
98.27% | 0.6 nM | COC[C@@H]1NC(=O)[C@H](C)N(Cc2ccc(Cl)cc2Oc2ccc(-c3cnc(CN4CCCC4)n3C)cc2)C(=O)C[C@@H](Cc2ccccc2)C(=O)N(C)[C@@H](C)[C@H](C)NC(=O)C[C@H](Cc2ccc(Cl)cc2)N(C)C1=O [Compound 198, (2S,5S,8S,12S,13S,16R)-16-benzyl-1-(4-chloro-2-(4-(1-methyl-2-(pyrrolidin-1-ylmethyl)-1H-imidazol-5-yl)phenoxy)benzyl)-8-(4-chlorobenzyl)-5-(methoxymethyl)-2,7,12,13,14-pentamethyl-1,4,7,11,14-pentaazacyclooctadecane-3,6,10,15,18-pentaone]
100.29% | 24.8 nM | COC[C@@H]1NC(=O)[C@H](C)N(Cc2ccc(F)cc2Oc2ccc(-c3cnc(CN(C)C)n3C)cc2)C(=O)C[C@@H](Cc2ccccc2)C(=O)N(C)[C@@H](C)CNC(=O)C[C@H](Cc2ccc(Cl)cc2)N(C)C1=O [Compound 199, (2S,5S,8S,13S,16R)-16-benzyl-8-(4-chlorobenzyl)-1-(2-(4-(2-((dimethylamino)methyl)-1-methyl-1H-imidazol-5-yl)phenoxy)-4-fluorobenzyl)-5-(methoxymethyl)-2,7,13,14-tetramethyl-1,4,7,11,14-pentaazacyclooctadecane-3,6,10,15,18-pentaone]
93.78% | 65.4 nM | COC[C@H]1C(=O)N[C@@H](CO)C(=O)N(C)[C@@H](Cc2ccc(Cl)cc2)CC(=O)NC[C@H](C)N(C)C(=O)CCC(=O)N1Cc1ccccc1Oc1ccc(-c2cnc(CN(C)C)n2C)cc1 [Compound 200, (2S,5S,8S,13S)-8-(4-chlorobenzyl)-1-(2-(4-(2-((dimethylamino)methyl)-1-methyl-1H-imidazol-5-yl)phenoxy)benzyl)-5-(hydroxymethyl)-2-(methoxymethyl)-7,13,14-trimethyl-1,4,7,11,14-pentaazacyclooctadecane-3,6,10,15,18-pentaone]
72.22% | 441 nM | COC[C@@H]1NC(=O)[C@H](C)N(Cc2ccc(Cl)cc2Oc2ccc(-c3cnc(CN(C)C)n3C)cc2)C(=O)CC2(CC2)C(=O)N(C)[C@@H](C)CNC(=O)C[C@H](Cc2ccc(Cl)cc2)N(C)C1=O [Compound 201, (6S,11S,14S,17S)-18-(4-chloro-2-(4-(2-((dimethylamino)methyl)-1-methyl-1H-imidazol-5-yl)phenoxy)benzyl)-11-(4-chlorobenzyl)-14-(methoxymethyl)-5,6,12,17-tetramethyl-5,8,12,15,18-pentaazaspiro[2.17]icosane-4,9,13,16,19-pentaone]
95.27% | 2.9 nM | COC[C@@H]1NC(=O)[C@H](C)N(Cc2ccc(Cl)cc2Oc2ccc(-c3cnc(CN(C)C)n3C)cc2)C(=O)CCC(=O)N(C)[C@H]2CCCC[C@@H]2NC(=O)C[C@H](Cc2ccc(Cl)cc2)N(C)C1=O [Compound 202, (4S,7S,10S,16aS,20aS)-11-(4-chloro-2-(4-(2-((dimethylamino)methyl)-1-methyl-1H-imidazol-5-yl)phenoxy)benzyl)-4-(4-chlorobenzyl)-7-(methoxymethyl)-5,10,16-trimethylhexadecahydrobenzo[l][1,4,7,11,14]pentaazacyclooctadecine-2,6,9,12,15(3H)-pentaone]
90.79% | 2 nM | COC[C@@H]1NC(=O)[C@H](C)N(Cc2ccc(Cl)cc2Oc2ccc(-c3cnc(CN4CCCC4)n3C)cc2)C(=O)C[C@@H](Cc2ccccc2)C(=O)N(C)[C@H]2CCCC[C@@H]2NC(=O)C[C@H](Cc2ccc(Cl)cc2)N(C)C1=O [Compound 203, (4S,7S,10S,14R,16aS,20aS)-14-benzyl-11-(4-chloro-2-(4-(1-methyl-2-(pyrrolidin-1-ylmethyl)-1H-imidazol-5-yl)phenoxy)benzyl)-4-(4-chlorobenzyl)-7-(methoxymethyl)-5,10,16-trimethylhexadecahydrobenzo[l][1,4,7,11,14]pentaazacyclooctadecine-2,6,9,12,15(3H)-pentaone]
93.20% | 2 nM | COC[C@@H]1NC(=O)[C@H](C)N(Cc2ccc(Cl)cc2Oc2ccc(-c3cnc(CN4CCOCC4)n3C)cc2)C(=O)C[C@@H](Cc2ccccc2)C(=O)N(C)[C@@H](C)CNC(=O)C[C@H](Cc2ccc(Cl)cc2)N(C)C1=O [Compound 205, (2S,5S,8S,13S,16R)-16-benzyl-1-(4-chloro-2-(4-(1-methyl-2-(morpholinomethyl)-1H-imidazol-5-yl)phenoxy)benzyl)-8-(4-chlorobenzyl)-5-(methoxymethyl)-2,7,13,14-tetramethyl-1,4,7,11,14-pentaazacyclooctadecane-3,6,10,15,18-pentaone]
99.72% | 5.8 nM | COC[C@@H]1NC(=O)[C@H](C)N(Cc2ccc(Cl)cc2Oc2ccc(-c3cnc(CN4CCCC4)n3C)cc2)C(=O)C[C@@H](Cc2cccc(OC(F)(F)F)c2)C(=O)N(C)[C@@H](C)CNC(=O)C[C@H](Cc2ccc(Cl)cc2)N(C)C1=O [Compound 206, (2S,5S,8S,13S,16R)-1-(4-chloro-2-(4-(1-methyl-2-(pyrrolidin-1-ylmethyl)-1H-imidazol-5-yl)phenoxy)benzyl)-8-(4-chlorobenzyl)-5-(methoxymethyl)-2,7,13,14-tetramethyl-16-(3-(trifluoromethoxy)benzyl)-1,4,7,11,14-pentaazacyclooctadecane-3,6,10,15,18-pentaone]
102.49% | 2.2 nM | CC[C@H]1C(=O)N[C@@H](CO)C(=O)N(C)[C@@H](Cc2ccc(Cl)cc2)CC(=O)NC[C@H](C)N(C)C(=O)[C@H](Cc2ccccc2)CC(=O)N1Cc1ccc(Cl)cc1Oc1ccc(-c2cnc(CN(C)C)n2C)cc1 [Compound 207, (2S,5S,8S,13S,16R)-16-benzyl-1-(4-chloro-2-(4-(2-((dimethylamino)methyl)-1-methyl-1H-imidazol-5-yl)phenoxy)benzyl)-8-(4-chlorobenzyl)-2-ethyl-5-(hydroxymethyl)-7,13,14-trimethyl-1,4,7,11,14-pentaazacyclooctadecane-3,6,10,15,18-pentaone]
87.45% | 2.7 nM | COC[C@@H]1NC(=O)[C@H](C)N(Cc2c(F)cc(F)cc2Oc2ccc(-c3cnc(CN(C)C)n3C)cc2)C(=O)C[C@@H](Cc2ccccc2)C(=O)N(C)[C@H]2CCCC[C@@H]2NC(=O)C[C@H](Cc2ccc(Cl)cc2)N(C)C1=O [Compound 208, (4S,7S,10S,14R,16aS,20aS)-14-benzyl-4-(4-chlorobenzyl)-11-(2-(4-(2-((dimethylamino)methyl)-1-methyl-1H-imidazol-5-yl)phenoxy)-4,6-difluorobenzyl)-7-(methoxymethyl)-5,10,16-trimethylhexadecahydrobenzo[l][1,4,7,11,14]pentaazacyclooctadecine-2,6,9,12,15(3H)-pentaone]
98.10% | 4.9 nM | CC[C@H]1C(=O)N[C@@H](COC)C(=O)N(C)[C@@H](Cc2ccc(Cl)c(F)c2)CC(=O)NC[C@H](C)N(C)C(=O)[C@H](Cc2ccccc2)CC(=O)N1Cc1ccc(Cl)cc1Oc1ccc(-c2cnc(CN(C)C)n2C)cc1 [Compound 209, (2S,5S,8S,13S,16R)-16-benzyl-1-(4-chloro-2-(4-(2-((dimethylamino)methyl)-1-methyl-1H-imidazol-5-yl)phenoxy)benzyl)-8-(4-chloro-3-fluorobenzyl)-2-ethyl-5-(methoxymethyl)-7,13,14-trimethyl-1,4,7,11,14-pentaazacyclooctadecane-3,6,10,15,18-pentaone]
